From PMC9921851, “Synthesis and Preclinical Evaluation of Three Novel ^68Ga-Labeled Bispecific PSMA/FAP-Targeting Tracers for Prostate Cancer Imaging” (Molecules, 2023)

Tests used:
[1] = biological target: T1, PSMA (Homo sapiens, UniProt Q04609); experiment: In vitro PSMA competition binding assay ([^18F]DCFPyL displacement on LNCaP cells); settings: radioligand [^18F]DCFPyL, n = 3
T1 construct: endogenous in cells; host or cells: LNCaP cells (ATCC via Cedarlane)
Method: The binding affinities of Ga-AV01017, Ga-AV01030, Ga-AV01038, Ga-HTK03041, and Ga-FAPI-04 to PSMA were measured by a cell-based binding assay using PSMA-expressing LNCaP prostate cancer cells. The nonradioactive Ga-complexed standards, except Ga-FAPI-04, inhibited the binding of [^18F]DCFPyL to LNCaP cells in a dose-dependent manner (Figure 3A).
The PSMA binding assays were conducted following previously published procedures using LNCaP cells and [^18F]DCFPyL as the radioligand [34, 42, 43]. Data analyses of IC50 were performed using the nonlinear regression algorithm of GraphPad Prism 7 (San Diego, CA, USA) software.

[2] = biological target: T2, recombinant human FAP (Homo sapiens, UniProt Q12884); experiment: In vitro FAP fluorescence enzyme-inhibition assay (Suc-Gly-Pro-AMC substrate); format: biochemical; settings: n = 3
T2 construct: purchased Biolegend
T2 sequence (Q12884 1-760): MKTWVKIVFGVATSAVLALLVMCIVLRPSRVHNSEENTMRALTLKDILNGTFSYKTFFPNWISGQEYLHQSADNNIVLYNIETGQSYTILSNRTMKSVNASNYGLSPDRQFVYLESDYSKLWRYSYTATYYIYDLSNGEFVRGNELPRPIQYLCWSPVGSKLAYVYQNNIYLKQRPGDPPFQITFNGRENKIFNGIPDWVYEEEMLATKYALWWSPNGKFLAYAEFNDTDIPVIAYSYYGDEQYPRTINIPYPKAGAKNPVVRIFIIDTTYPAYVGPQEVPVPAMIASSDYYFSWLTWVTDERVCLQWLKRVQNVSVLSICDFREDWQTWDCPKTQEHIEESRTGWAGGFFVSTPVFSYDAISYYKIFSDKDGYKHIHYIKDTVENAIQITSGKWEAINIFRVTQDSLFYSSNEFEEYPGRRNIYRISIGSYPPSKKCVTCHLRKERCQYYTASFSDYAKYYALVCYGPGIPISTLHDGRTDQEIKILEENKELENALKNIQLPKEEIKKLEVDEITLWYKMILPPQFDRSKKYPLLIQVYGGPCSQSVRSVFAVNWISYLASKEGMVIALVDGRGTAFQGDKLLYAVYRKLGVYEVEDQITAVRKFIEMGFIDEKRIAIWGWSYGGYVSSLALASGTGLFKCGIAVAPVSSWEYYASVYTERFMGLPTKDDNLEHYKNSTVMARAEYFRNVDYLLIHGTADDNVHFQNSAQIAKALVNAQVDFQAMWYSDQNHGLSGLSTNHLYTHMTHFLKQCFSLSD
Method: The binding affinities of Ga-AV01017, Ga-AV01030, Ga-AV01038, Ga-HTK03041, and Ga-FAPI-04 to human FAP were measured by an enzyme-inhibition assay using Suc-Gly-Pro-AMC as the FAP substrate. The human FAP enzymatic activity on the substrate was inhibited by Ga-complexed standards in a dose-dependent manner (Figure 3B).
The half maximal inhibitory concentration (IC50) values of the tested compounds for FAP were measured by in vitro enzymatic assay. The recombinant human FAP (Biolegend; 0.2 µg/mL, 50 µL) was added into a costar 96-well plate. PBS and varied concentrations (0.2 pM to 2 µM) of tested nonradioactive Ga-complexed standards were added to each well (in duplicate) containing the recombinant human FAP. After being incubated for 30 min at 37 °C, 50 µL of Suc-Gly-Pro-AMC (2 µM, Bachem) was added to each well. The fluorescent signals were acquired at 15, 30, 45, and 60 min using a FlexStation 3 Multi-Mode Microplate Reader with excitation at 380 nm and emission at 460 nm. The IC50(FAP) was calculated using a “nonlinear fit model” built-in model in GraphPad Prism 7.02 software

[3] = system: PSMA-expressing LNCaP tumor xenografts; experiment: Ex vivo biodistribution in LNCaP tumor-bearing mice; settings: 1 h post injection, range over LNCaP and HEK293T:hFAP tumor-bearing mice
Method: Biodistribution studies were conducted at 1 h post injection with ^68Ga-labeled AV01017, AV01030, AV01038, HTK03041, and FAPI-04 in LNCaP tumor-bearing mice (Figure 5 and Table S4, Supplementary Materials). The results were consistent with the observation from their PET images. Tumor uptake values for [^68Ga]Ga-AV01017, [^68Ga]Ga-AV01030, [^68Ga]Ga-AV01038, [^68Ga]Ga-HTK03041, and [^68Ga]Ga-FAPI-04 were 4.38 ± 0.55, 5.17 ± 0.51, 4.25 ± 0.86, 23.1 ± 6.11, and 3.15 ± 1.43 %ID/g, respectively. […] Although not statistically significant, the bispecific tracers with a longer linker tend to have a higher blood uptake value (9.24 ± 1.55 %ID/g for [^68Ga]Ga-AV01017; 7.07 ± 0.31%ID/g for [^68Ga]Ga-AV01038; 5.75 ± 0.59 %ID/g for [^68Ga]Ga-AV01030) and a lower tumor-to-blood ratio (0.48 ± 0.11 for [^68Ga]Ga-AV01017; 0.60 ± 0.13 for [^68Ga]Ga-AV01038; 0.89 ± 0.03 for [^68Ga]Ga-AV01030).
Imaging and biodistribution studies were performed using male NOD.Cg-Rag1tm1Mom Il2rgtm1Wjl/SzJ (NRG) mice following previously published procedures. The experiments were conducted according to the guidelines established by the Canadian Council on Animal Care and approved by Animal Ethics Committee of the University of British Columbia. The mice were briefly sedated by inhalation of 2.5% isoflurane in oxygen, and 100 µL LNCaP (2 × 10^5 cells) or HEK293T:hFAP (8.5 × 10^6 cells) cells were inoculated subcutaneously behind the left shoulder. When the tumor grew to 5–8 mm in diameter over 3–4 weeks and 4–5 weeks for HEK293T:hFAP and LNCaP tumors, respectively, the mice were used for PET/CT imaging and biodistribution studies.
For biodistribution studies, the mice were injected with the radiotracer (~2–4 MBq) as described above. At 1 h post injection, the mice were euthanized by CO2 inhalation. Blood was withdrawn by cardiac puncture, and organs/tissues of interest were collected, weighed, and counted using a Perkin Elmer (Waltham, MA, USA) Wizard2 2480 automatic gamma counter.

T1 sequence (Q04609 whole entry): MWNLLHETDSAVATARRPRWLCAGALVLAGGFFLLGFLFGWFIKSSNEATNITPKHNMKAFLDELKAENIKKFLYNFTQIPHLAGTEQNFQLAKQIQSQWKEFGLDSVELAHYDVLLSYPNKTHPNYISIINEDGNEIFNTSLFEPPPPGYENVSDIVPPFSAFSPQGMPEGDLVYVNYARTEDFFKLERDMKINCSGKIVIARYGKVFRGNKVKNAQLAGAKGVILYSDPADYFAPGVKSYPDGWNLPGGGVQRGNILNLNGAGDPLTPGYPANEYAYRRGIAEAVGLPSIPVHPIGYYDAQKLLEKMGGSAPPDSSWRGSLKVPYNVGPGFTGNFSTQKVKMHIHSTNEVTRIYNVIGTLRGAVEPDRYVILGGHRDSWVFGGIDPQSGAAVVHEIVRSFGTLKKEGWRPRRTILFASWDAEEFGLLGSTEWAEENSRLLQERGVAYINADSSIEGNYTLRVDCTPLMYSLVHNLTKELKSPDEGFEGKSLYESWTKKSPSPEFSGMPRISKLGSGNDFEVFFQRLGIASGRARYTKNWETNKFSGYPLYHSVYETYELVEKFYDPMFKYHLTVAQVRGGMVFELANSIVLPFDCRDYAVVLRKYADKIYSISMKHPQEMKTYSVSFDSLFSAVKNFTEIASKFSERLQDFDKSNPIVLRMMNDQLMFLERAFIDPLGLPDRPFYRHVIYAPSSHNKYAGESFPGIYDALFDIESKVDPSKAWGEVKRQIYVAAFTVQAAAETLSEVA

| Structure (SMILES) | IC50 [1] [nM] | IC50 [2] [nM] | Blood uptake values (range over both tumor models) [3] |
| --- | --- | --- | --- |
| N#C[C@@H]1CC(F)(F)CN1C(=O)CNC(=O)c1ccnc2ccc(OCCCc3cn(CC(=O)N[C@@H](CCCCNC(=O)CN4CCN(CC(=O)[O-])CCN(CC(=O)[O-])CCN(CC(=O)[O-])CC4)C(=O)NCC(=O)NC[C@H]4CC[C@H](C(=O)N[C@@H](Cc5c6ccccc6cc6ccccc56)C(=O)NCCCC[C@H](NC(=O)N[C@@H](CCC(=O)O)C(=O)O)C(=O)O)CC4)nn3)cc12.[Ga+3] [Ga-AV01017] | 25.2 ± 10.7 | 1.25 ± 0.39 | 9.24–11.9 %ID/g |
| N#C[C@@H]1CC(F)(F)CN1C(=O)CNC(=O)c1ccnc2ccc(-c3cn(CC(=O)N[C@@H](CCCCNC(=O)CN4CCN(CC(=O)[O-])CCN(CC(=O)[O-])CCN(CC(=O)[O-])CC4)C(=O)NCC(=O)NC[C@H]4CC[C@H](C(=O)N[C@@H](Cc5c6ccccc6cc6ccccc56)C(=O)NCCCC[C@H](NC(=O)N[C@@H](CCC(=O)O)C(=O)O)C(=O)O)CC4)nn3)cc12.[Ga+3] [Ga-AV01030] | 71.6 ± 23 | 2.74 ± 0.33 | 5.68–5.75 %ID/g |
| N#C[C@@H]1CC(F)(F)CN1C(=O)CNC(=O)c1ccnc2ccc(OCc3cn(CC(=O)N[C@@H](CCCCNC(=O)CN4CCN(CC(=O)[O-])CCN(CC(=O)[O-])CCN(CC(=O)[O-])CC4)C(=O)NCC(=O)NC[C@H]4CC[C@H](C(=O)N[C@@H](Cc5c6ccccc6cc6ccccc56)C(=O)NCCCC[C@H](NC(=O)N[C@@H](CCC(=O)O)C(=O)O)C(=O)O)CC4)nn3)cc12.[Ga+3] [Ga-AV01038] | 29.4 ± 25.2 | 2.31 ± 0.13 | 7.07–7.45 %ID/g |
| O=C([O-])CN1CCN(CC(=O)[O-])CCN(CC(=O)NC[C@H]2CC[C@H](C(=O)N[C@@H](Cc3c4ccccc4cc4ccccc34)C(=O)NCCCC[C@H](NC(=O)N[C@@H](CCC(=O)O)C(=O)O)C(=O)O)CC2)CCN(CC(=O)[O-])CC1.[Ga+3] [Ga-HTK03041, reference compound] | 0.76 ± 0.12 | 2010 ± 585 | – |
